Each structure is given as a SMILES string.

The subject of test [1] is sugar beet. The test can be described thus: Postemergent control of plant species. It is filed as in vivo, Beta saccharifera. As to conditions: Beta vulgaris, post-emergence, 336 h, read-out: percent postemergent control. In outline:
(§1)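 Foliar spray, 2-4 leaf stage, greenhouse. Formulation: acetone solution (2x final conc.) mixed 1:1 with water + 0.1% surface active agent. ~2 wk hold, watered as needed. Readout = % growth reduction vs untreated same-species controls.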

In test [2] the test system is cotton. The test can be described thus: Preemergent control of plant species. In kind it is in vivo, Gossypium spp. The conditions noted are these: Gossypium hirsutum, pre-emergence, 336 h; 0.25 lb/acre; read-out: percent preemergent control. The essentials:
(§2)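 Growth reduction relative to untreated plants of the same species, assessed two weeks after treatment, defines the control value. Compositions, mostly aqueous emulsions, were deposited uniformly on seeded greenhouse soil beds at the tabulated rates, with a water-treated bed as reference.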

For test [3], the system named is sprangletop. The test can be described thus: Control of aquatic plant species (paddy water). The conditions noted are these: Leptochloa filiformis, 216 h, nine days, read-out: Percent control; for pest or weed control at 1000 g/ha: 1.0 Kg/Ha. It is filed as in vivo, Leptochloa filiformis. The essentials:
(§3)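 1-2 inch plants transplanted into ~2 in soil, flooded ~1 in deep; acetone concentrate injected into floodwater, volume adjusted for target concentration; % control scored at 9 days.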

Test [4] relates to yellow nutsedge. The test can be described thus: Postemergent control of plant species. It is filed as in vivo, Cyperus esculentus. The conditions noted are these: Cyperus, post-emergence, 336 h, read-out: percent postemergent control. In outline: as §1
For test [5], the system named is rice. The test can be described thus: Control of aquatic plant species (paddy water). In kind it is in vivo, Oryza sativa. The conditions noted are these: Oryza sativa, 216 h, nine days, read-out: Percent control; for pest or weed control at 1000 g/ha: 1.0 Kg/Ha. In outline:
as §3

The test system of test [6] is rice. The test can be described thus: Postemergent control of plant species. In kind it is in vivo, Oryza sativa. The conditions noted are these: Oryza sativa, post-emergence, 336 h, read-out: percent postemergent control. In outline: as §1
In test [7] the test system is sorghum. Nature of the test: Preemergent control of plant species. It is filed as in vivo, Sorghum vulgare. The conditions noted are these: Sorghum, pre-emergence, 336 h; 0.25 lb/acre; read-out: percent preemergent control. The essentials: as §2
The test system of test [8] is annual morning glory. Nature of the test: Preemergent control of plant species. The conditions noted are these: Ipomoea, pre-emergence, 336 h; 0.25 lb/acre; read-out: percent preemergent control. It is filed as in vivo, Ipomoea spp. The essentials:
as §2

The subject of test [9] is pigweed. Nature of the test: Postemergent control of plant species. In kind it is in vivo, Amaranthus spp. The conditions noted are these: Amaranthus retroflexus, post-emergence, 336 h, read-out: percent postemergent control. In outline: as §1
The test system of test [10] is yellow nutsedge. Nature of the test: Control of aquatic plant species (paddy water). It is filed as in vivo, Cyperus esculentus. As to conditions: Cyperus, 216 h, nine days, read-out: Percent control; for pest or weed control at 1000 g/ha: 1.0 Kg/Ha. In outline: as §3
The test system of test [11] is barnyardgrass. The test can be described thus: Postemergent control of plant species. It is filed as in vivo, Echinochloa crusgalli. The conditions noted are these: Echinochloa crus-galli, post-emergence, 336 h, read-out: percent postemergent control. The essentials:
as §1

The subject of test [12] is cotton. Nature of the test: Postemergent control of plant species. It is filed as in vivo, Gossypium spp. The conditions noted are these: Gossypium hirsutum, post-emergence, 336 h, read-out: percent postemergent control. The essentials:
as §1

The subject of test [13] is barnyardgrass. Nature of the test: Preemergent control of plant species. The conditions noted are these: Echinochloa crus-galli, pre-emergence, 336 h; 0.25 lb/acre; read-out: percent preemergent control. In kind it is in vivo, Echinochloa crusgalli. The essentials:
as §2

Test [14] concerns wheat. The test can be described thus: Preemergent control of plant species. In kind it is in vivo, Triticum aestivum. As to conditions: Triticum aestivum, pre-emergence, 336 h; 0.25 lb/acre; read-out: percent preemergent control. In outline: as §2
The subject of test [15] is sugar beet. Nature of the test: Preemergent control of plant species. In kind it is in vivo, Beta saccharifera. The conditions noted are these: Beta vulgaris, pre-emergence, 336 h; 0.25 lb/acre; read-out: percent preemergent control. The essentials: as §2
The subject of test [16] is barnyardgrass. Nature of the test: Control of aquatic plant species (paddy water). It is filed as in vivo, Echinochloa crusgalli. As to conditions: Echinochloa crus-galli, 216 h, nine days, read-out: Percent control; for pest or weed control at 1000 g/ha: 1.0 Kg/Ha. As to the method:
In testing for such utility, the plant species to be tested were transplanted into 16 oz. containers into about 2 inches of soil when they were in the 1-2 inch stage and then flooded to a depth of about 1 inch. An acetone concentrate of the chemical to be tested was then injected into the paddy water, the volume injected being varied as desired to provide the desired concentration. Percent control was evaluated nine days after application.

Test [17] has as its system jimsonweed. Nature of the test: Postemergent control of plant species. In kind it is in vivo, Datura stramonium. The conditions noted are these: Datura stramonium, post-emergence, 336 h, read-out: percent postemergent control. In outline: as §1
Test [18] deals with soybean. Nature of the test: Preemergent control of plant species. In kind it is in vivo, Glycine max. The conditions noted are these: Glycine max, pre-emergence, 336 h; 0.25 lb/acre; read-out: percent preemergent control. In outline:
as §2

Test [19] has as its system annual sugar beet variety (SLC03). The test can be described thus: Plant growth regulator activity, postemergence. It is filed as in vivo. The conditions noted are these: Beta vulgaris, post-emergence, 672 h, 4 weeks after spraying; read-out: Bolting Inhibition (postemergence), concentration with observed effect. An excerpt:
Using a regular biennial variety, even a bolting-susceptible variety would require a cold treatment of around 10-16 weeks plus a hormone treatement in conjunction with specific light intensities. Thus, for a screening organism, we selected one which would consistently produce bolting on a regular schedule. The screen is run with an annual sugar beet variety (SLC03) provided by Dr. Richard J. Hecker, Fort Collins, Colo. This variety is an inbred which bolts in the 6- to 8-leaf stage without any need for vernalization. This allows the screen to be run entirely in the greenhouse with all 110 chemical compounds tested on one tray. The sugarbeets are grown in 3×3 inch square pots in a greenhouse sandy loam potting mix. The sugarbeets are sprayed with test compounds when they are 2 to 3 weeks old (2 true leaves). The compounds are dissolved in acetone and diluted with water containing Tween 20 as a wetting agent. The concentration of acetone in the final spray is 20% and the concentration of Tween 20 is 0.05 percent. The plants are examined for the appearance of a bolt 4 weeks after spraying.

In the case of `Cc1cc(C)n2nc(S(=O)(=O)Nc3ccccc3I)nc2n1` [Compound 6], the plant injury at 500 ppm came out at 90% in test [1], 20% in [6] and 60% in test [12]. Moreover, the plant injury at 280.212 g/ha in [2] worked out at 70%; in test [7], 50%; in test [14], 0%; in test [15], 95%; in test [18] it was 10%. Moreover, the pest or weed control at 1000 g/ha in [3] was determined as 20%; in [5] it was 93%; in [10], 90%; in test [16], 99%. Moreover, the pest or weed control at 500 ppm turned out to be 90% in test [4], 30% in [9], 35% in [11] and 30% in [17]. The results for the pest or weed control at 280.212 g/ha in [8] and in test [13] were 0% and 80%, respectively.
Take `Cc1cc(C)n2nc(S(=O)(=O)Nc3ccccc3F)nc2n1` [Compound 8]: the plant injury at 500 ppm was 95% in test [1] and 40% in test [6]. For the same molecule, the plant injury at 280.212 g/ha was determined as 90% in test [2], 0% in [14], 90% in test [15] and 95% in test [18]. For the same molecule, the pest or weed control at 1000 g/ha in test [3] worked out at 0%; in test [5] it was 97%; in test [10], 93%; in test [16], 99%. Also, the pest or weed control at 500 ppm turned out to be 60% in test [4], 50% in [9], 70% in [11] and 90% in test [17]. The pest or weed control at 280.212 g/ha in test [8] amounted to 25%; in [13], 75%. In test [19], the minimal effective concentration was determined as 50 µg/mL.
As to `Cc1cc(C)n2nc(S(=O)(=O)Nc3ccccc3[N+](=O)[O-])nc2n1` [Compound 12], the plant injury at 500 ppm in [1] came to 95%; in [6], 25%. Moreover, the plant injury at 280.212 g/ha in test [2] turned out to be 95%; in test [14], 0%; in test [15], 98%; in test [18], 95%. The pest or weed control at 1000 g/ha in test [3] stood at 0%; in test [5], 70%; in test [10], 95%; in test [16], 97%. Also, the pest or weed control at 500 ppm in [4] came out at 90%; in test [9], 100%; in test [11], 80%; in test [17], 70%. Besides, the pest or weed control at 280.212 g/ha in [8] stood at 50%; in [13], 40%.
Consider `COC(=O)c1cccc(F)c1NS(=O)(=O)c1nc2nc(C)cc(C)n2n1` [Compound 26], for which the plant injury at 500 ppm was 100% in test [1], 80% in test [6] and 100% in test [12]. In addition, the plant injury at 280.212 g/ha in [2] stood at 95%; in [14], 0%; in [15], 100%; in test [18] it was 98%. For the same molecule, the pest or weed control at 125 g/ha in [3] (0.125 Kg/Ha) stood at 0%; in [5] (0.125 Kg/Ha), 93%; in test [10] (0.125 Kg/Ha), 95%; in [16] (0.125 Kg/Ha), 90%. For the same molecule, the pest or weed control at 500 ppm in test [4] stood at 90%; in test [9], 100%; in test [11] it was 100%; in test [17] it was 100%. Moreover, the values for the pest or weed control at 280.212 g/ha in test [8] and in [13] were 95% and 98%, respectively.
As to `CCc1cccc(CC)c1NS(=O)(=O)c1nc2nc(C)cc(C)n2n1` [Compound 33], the plant injury at 500 ppm in test [1] amounted to 40%; in test [6] it was 0%; in test [12], 50%. In addition, the plant injury at 280.212 g/ha in test [2] was 20%; in [7] it was 0%; in test [14], 40%; in test [15], 50%; in [18], 10%. Moreover, the pest or weed control at 1000 g/ha in test [3] came out at 90%; in [5] it was 97%; in [10], 97%; in test [16], 97%. For the same molecule, the pest or weed control at 500 ppm is 10% in test [4], 10% in test [9], 0% in test [11] and 40% in [17]. Also, the figures for the pest or weed control at 280.212 g/ha in [8] and in [13] were 0% and 50%, respectively.
As to `Cc1cc(C)n2nc(S(=O)(=O)Nc3ccc(Cl)cc3C(F)(F)F)nc2n1` [Compound 34], the plant injury at 500 ppm in test [1] was determined as 100%; in test [6], 0%; in [12], 70%. Also, the plant injury at 280.212 g/ha in test [2] was 80%; in test [7], 90%; in test [14], 0%; in test [15], 90%; in test [18] it was 80%. Further, the pest or weed control at 500 ppm in test [4] came out at 60%; in test [9] it was 100%; in test [11] it was 0%; in test [17] it was 90%. Further, the pest or weed control at 280.212 g/ha in [8] and in test [13] was 20% throughout.
Regarding `CC(=O)N(c1c(Cl)cccc1Cl)S(=O)(=O)c1nc2nc(C)cc(C)n2n1` [Compound 262], the results for the plant injury at 500 ppm in [1], in test [6] and in test [12] were 100%, 40% and 100%, respectively. Besides, the plant injury at 280.212 g/ha is 90% in test [2], 0% in test [14], 100% in [15] and 100% in [18]. For the same molecule, the pest or weed control at 500 ppm in test [4] turned out to be 80%; in [9], 100%; in test [11] it was 100%; in [17] it was 100%. For the same molecule, the pest or weed control at 280.212 g/ha in test [8] and in test [13] was 90% each time.
